The IC50 is the midpoint of a concentration-inhibition curve. Low values mean higher potency, high ones lower potency.

The test has as its target T1, SGK1 (Homo sapiens, UniProt O00141).
T1 sequence (O00141 1-431): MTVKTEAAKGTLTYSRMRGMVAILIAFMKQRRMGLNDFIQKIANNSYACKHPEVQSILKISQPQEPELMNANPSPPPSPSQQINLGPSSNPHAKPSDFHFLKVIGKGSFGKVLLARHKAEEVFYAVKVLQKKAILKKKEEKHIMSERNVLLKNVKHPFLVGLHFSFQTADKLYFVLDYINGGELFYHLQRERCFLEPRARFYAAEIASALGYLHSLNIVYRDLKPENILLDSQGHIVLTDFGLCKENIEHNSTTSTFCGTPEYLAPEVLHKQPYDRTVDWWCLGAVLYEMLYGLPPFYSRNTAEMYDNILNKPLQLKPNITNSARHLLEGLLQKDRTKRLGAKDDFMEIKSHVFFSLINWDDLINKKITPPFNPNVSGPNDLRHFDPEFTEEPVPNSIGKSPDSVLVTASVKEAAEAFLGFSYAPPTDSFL
The test is described as follows: SGK1 inhibition Assay B (Echo mass spectrometry of phosphorylated peptide product). The settings on record: 60 min at room temperature. It counts as biochemical.

Experimental: 20 μl of 2 nM SGK1 were added in 20 mM Hepes+10 mM MgCl2+0015% Brij-35+4 mM DTT+0.05 mg/ml BSA and the reaction incubated for 60 min at room temperature. The enzymatic reaction was quenched by addition 10 μl of 1% Formic Acid+150 nM Internal Standard: FITC-(Ahx)KKRNRR(pS)VA^—OH (final concentration). The plates are spun down at 3700 RPM for 10 minutes to remove all precipitate. Samples were loaded on to the Sciex Echo Mass Spec attached to a Sciex 6500 equipped with ESI and was used to analyze the phosphorylated peptide product. MRM transition of product and internal standard were monitored at m/z 755 to 937.5 and m/z 757.7 to 941.3 respectively. Peak area of analyte was normalized with internal standard.
Dose response curves were generated to determine the concentration required for inhibiting 50% of the enzyme activity. Compounds were dissolved at 10 mM in dimethylsulfoxide (DMSO) and evaluated at eleven concentrations.

In the case of `Cc1nc(OC2CCC(N3CC(O)C3)CC2)c(C(=O)N[C@@H]2CCCN(c3cc(C4=CC(=O)OC4)n4ncnc(N)c34)C2)s1` (stereo partly drawn) [Example 997, (R)-N-(1-(4-amino-7-(5-oxo-2,5-dihydrofuran-3-y1)pyrrolo[2,1-f] [1,2,4]triazin-5-y1)piperidin-3-y1)-4-((4~(3-hydroxyazetidin-1-yl)cyclohexyl)oxy)-2-methylthiazole-5-carboxamide], the IC50 came out at 600 pM.
The value for `Cc1nc(OC2CCC(N3CCC3)CC2)c(C(=O)N[C@@H]2CCCN(c3cc(C4=CC(=O)OC4)n4ncnc(N)c34)C2)s1` (stereo partly drawn) [Example 998, (R)-N-(1-(4-amino-7-(5-oxo-2,5-dihydrofuran-3-y1)pyrrolo[2,1-f] [1,2,4]triazin-5-yl)piperidin-3-y1)-4-((4-(azetidin-1-yl)cyclohexyl)oxy)-2-methylthiazole-5-carboxamide] was 1100 pM; that for `Cc1nc(OC2CCC(N3CC(C)C3)CC2)c(C(=O)N[C@@H]2CCCN(c3cc(C4=CC(=O)OC4)n4ncnc(N)c34)C2)s1` (stereo partly drawn) [Example 999, (R)-N-(1-(4-amino-7-(5-oxo-2,5-dihydrofuran-3-y1)pyrrolo[2,1-f] [1,2,4]triazin-5-yl)piperidin-3-y1)-2-methyl-4-((4-(3-methylazetidin-1-yl)cyclohexyl)oxy)thiazole-5-carboxamide] was 700 pM.
The value for `COCC(C)(C)NC1CCC(Oc2nc(C)sc2C(=O)N[C@@H]2CCCN(c3cc(C4=CC(=O)OC4)n4ncnc(N)c34)C2)CC1` (stereo partly drawn) [Example 1000, (R)—N-(1-(4-amino-7-(5-oxo-2,5-dihydrofuran-3-yl)pyrrolo[2,1-f][1,2,4]triazin-5-yl)piperidin-3-yl)-4-((4-((1-methoxy-2-methylpropan-2-yl)amino)cyclohexyl)oxy)-2-methylthiazole-5-carboxamide] was 700 pM; that for `CCC(C)(C)NC1CCC(Oc2nc(C)sc2C(=O)N[C@@H]2CCCN(c3cc(C4=CC(=O)OC4)n4ncnc(N)c34)C2)CC1` (stereo partly drawn) [Example 1001, (R)—N-(1-(4-amino-7-(5-oxo-2,5-dihydrofuran-3-yl)pyrrolo[2,1-f][1,2,4]triazin-5-yl)piperidin-3-yl)-2-methyl-4-((4-(tert-pentylamino)cyclohexyl)oxy)thiazole-5-carboxamide] was 600 pM; that for `Cc1nc(O[C@H]2CC[C@@H](NC3CCOCC3)CC2)c(C(=O)N[C@@H]2CCCN(c3cc(C4=CC(=O)OC4)n4ncnc(N)c34)C2)s1` [Example 1002, N—((R)-1-(4-amino-7-(5-oxo-2,5-dihydrofuran-3-yl)pyrrolo[2,1-f][1,2,4]triazin-5-yl)piperidin-3-yl)-2-methyl-4-(((1S,4S)-4-((tetrahydro-2H-pyran-4-yl)amino)cyclohexyl)oxy)thiazole-5-carboxamide] was 300 pM.
For `CCC(CC)N[C@H]1CC[C@@H](Oc2nc(C)sc2C(=O)N[C@@H]2CCCN(c3cc(C4=CC(=O)OC4)n4ncnc(N)c34)C2)CC1` [Example 1003, N—((R)-1-(4-amino-7-(5-oxo-2,5-dihydrofuran-3-yl)pyrrolo[2,1-f][1,2,4]triazin-5-yl)piperidin-3-yl)-2-methyl-4-(((1S,4S)-4-(pentan-3-ylamino)cyclohexyl)oxy)thiazole-5-carboxamide] the value was 800 pM.
Consider `[2H]C([2H])([2H])N([C@H]1CC[C@@H](Oc2nc(C)sc2C(=O)N[C@@H]2CCCN(c3cc(C4=CC(=O)OC4)n4ncnc(N)c34)C2)CC1)C([2H])([2H])[2H]` [Example 1004, N—((R)-1-(4-amino-7-(5-oxo-2,5-dihydrofuran-3-yl)pyrrolo[2,1-f][1,2,4]triazin-5-yl)piperidin-3-yl)-4-(((1S,4S)-4-(bis(methyl-d3)amino)cyclohexyl)oxy)-2-methylthiazole-5-carboxamide], for which the IC50 was 900 pM.
The value for `CCC(C)(C)NC1CCC(Oc2nc(C)sc2C(=O)N[C@@H]2CCCN(c3cc(C4=C(C)C(=O)OC4)n4ncnc(N)c34)C2)CC1` (stereo partly drawn) [Example 1005, (R)—N-(1-(4-amino-7-(4-methyl-5-oxo-2,5-dihydrofuran-3-yl)pyrrolo[2,1-f][1,2,4]triazin-5-yl)piperidin-3-yl)-2-methyl-4-((4-(tert-pentylamino)cyclohexyl)oxy)thiazole-5-carboxamide] was 500 pM; that for `CC1=C(c2cc(N3CCCC(NC(=O)c4sc(C)nc4OC4CCC(N5CCC5)CC4)C3)c3c(N)ncnn23)COC1=O` [Example 1006, (R)-N-(1-(4-amino-7-(4-methyl-5-oxo-2,5-dihydrofuran-3-yl)pyrrolo[2,1-f][1,2,4]triazin-5-y1)piperidin-3-y1)-4-((4-(azetidin-1-yl)cyclohexyl)oxy)-2-methylthiazole-5-carboxamide] was 800 pM.
For `COC[C@@H](C)N[C@H]1CC[C@@H](Oc2nc(C)sc2C(=O)N[C@@H]2CCCN(c3cc(C4=C(C)C(=O)OC4)n4ncnc(N)c34)C2)CC1` [Example 1007, N-((R)-1-(4-amino-7-(4-methyl-5-oxo-2.5-dihydrofuran-3-yl)pyrrolo[2,1-f][1,2,4]triazin-5-y1)piperidin-3-y1)-4-((4-(((R)-1-methoxypropan-2-yl)amino)cyclohexyl)oxy)-2~methylthiazole-5-carboxamide] the value was 1000 pM.
The value for `COC[C@@H](C)NC1CCC(Oc2nc(C)sc2C(=O)N[C@@H]2CCCN(c3cc(C4=C(C)C(=O)OC4)n4ncnc(N)c34)C2)CC1` (stereo partly drawn) [Example 1008, N-((R)-1-(4-amino-7-(4-methyl-5-oxo-2,5-dihydrofuran-3-y1)pyrrolo[2,1-f][1,2,4]triazin-5-yl)piperidin-3-y1)-4-((4-(((R)-1-methoxypropan-2-yl)amino)cyclohexyl)oxy)-2-methylthiazole-5-carboxamide] was 1000 pM.
Compound `CCC(CO)NC1CCC(Oc2nc(C)sc2C(=O)NC2CCCN(c3cc(C4=C(C)C(=O)OC4)n4ncnc(N)c34)C2)CC1` [Example 1009, N-((R)-1-(4-amino-7-(4-methyl-5-oxo-2,5-dihydrofuran-3-yl)pyrrolo[2,1-f][1,2,4]triazin-5-y1)piperidin-3-y1)-4-((4-(((S)-1-hydroxybutan-2-yl)amino)cyclohexyl)oxy)-2-methylthiazole-5-carboxamide] showed an IC50 of 1900 pM.
For `CC[C@H](CO)N[C@H]1CC[C@@H](Oc2nc(C)sc2C(=O)N[C@@H]2CCCN(c3cc(C4=C(C)C(=O)OC4)n4ncnc(N)c34)C2)CC1` [Example 1010, N-((R)-1-(4-amino-7-(4-methyl-5-oxo-2,5~dihydrofuran~3-yl)pyrrolo[2,1-f][1,2,4]triazin-5-y1)piperidin-3-y1)-4-((4-(((R)-1-hydroxybutan-2-yl)amino)cyclohexyl)oxy)-2-methylthiazole-5-carboxamide] the value was 2100 pM.
The value for `CCNC1CCC(Oc2nc(C)sc2C(=O)N[C@@H]2CCCN(c3cc(C4=C(C)C(=O)OC4)n4ncnc(N)c34)C2)CC1` (stereo partly drawn) [Example 1011, (R)—N-(1-(4-amino-7-(4-methyl-5-oxo-2,5-dihydrofuran-3-yl)pyrrolo[2,1-f][1,2,4]triazin-5-yl)piperidin-3-yl)-4-((4-(ethylamino)cyclohexyl)oxy)-2-methylthiazole-5-carboxamide] was 2200 pM; that for `CC1=C(c2cc(N3CCC[C@@H](NC(=O)c4sc(C)nc4O[C@H]4CC[C@@H](NC5CCOC5(C)C)CC4)C3)c3c(N)ncnn23)COC1=O` (stereo partly drawn) [Example 1012, N—((R)-1-(4-amino-7-(4-methyl-5-oxo-2,5-dihydrofuran-3-yl)pyrrolo[2,1-f][1,2,4]triazin-5-yl)piperidin-3-yl)-4-(((1S,4S)-4-((2,2-dimethyltetrahydrofuran-3-yl)amino)cyclohexyl)oxy)-2-methylthiazole-5-carboxamide] was 1100 pM; that for `[2H]C([2H])([2H])N([C@H]1CC[C@@H](Oc2nc(C)sc2C(=O)N[C@@H]2CCCN(c3cc(C4=C(C)C(=O)OC4)n4ncnc(N)c34)C2)CC1)C([2H])([2H])[2H]` [Example 1013, N—((R)-1-(4-amino-7-(4-methyl-5-oxo-2,5-dihydrofuran-3-yl)pyrrolo[2,1-f][1,2,4]triazin-5-yl)piperidin-3-yl)-4-(((1S,4S)-4-(bis(methyl-d3)amino)cyclohexyl)oxy)-2-methylthiazole-5-carboxamide] was 1700 pM.
`[2H]C([2H])([2H])c1nc(O[C@H]2CC[C@@H](N(C)C)CC2)c(C(=O)N[C@@H]2CCCN(c3cc(C4=C(C)C(=O)OC4)n4ncnc(N)c34)C2)s1` [Example 1016, N—((R)-1-(4-amino-7-(4-methyl-5-oxo-2,5-dihydrofuran-3-yl)pyrrolo[2,1-f][1,2,4]triazin-5-yl)piperidin-3-yl)-4-(((1S,4S)-4-(dimethylamino)cyclohexyl)oxy)-2-(methyl-d3)thiazole-5-carboxamide] showed an IC50 of 1000 pM.
Take `CC1=C(c2cc(N3CCC[C@@H](NC(=O)c4sc(C)nc4OC4CCC(N(C)C)CC4)C3)c3c(N)ncnn23)COC1=O` (stereo partly drawn) [Example 1017, N—((R)-1-(4-amino-7-(4-methyl-5-oxo-2,5-dihydrofuran-3-yl)pyrrolo[2,1-f][1,2,4]triazin-5-yl)piperidin-3-yl)-4-(((1S,4S)-4-(dimethylamino)cyclohexyl)oxy)-2-(methyl-d3)thiazole-5-carboxamide]: the midpoint of inhibition, the IC50, lay at 1600 pM.
On to `CCC1=C(c2cc(N3CCC[C@@H](NC(=O)c4sc(C)nc4O[C@H]4CC[C@@H](N(C)C)CC4)C3)c3c(N)ncnn23)COC1=O` [Example 1018, N—((R)-1-(4-amino-7-(4-ethyl-5-oxo-2,5-dihydrofuran-3-yl)pyrrolo[2,1-f][1,2,4]triazin-5-yl)piperidin-3-yl)-4-(((1S,4S)-4-(dimethylamino)cyclohexyl)oxy)-2-methylthiazole-5-carboxamide], for which the IC50 came out at 800 pM.
